We go through 19 compounds from patent publication US8912221B2, “Biaryl amide derivatives” (Hoffmann-La Roche Inc., priority 2010, dated 2014).

For assay [1], the target named is T1, Bradykinin-1 receptor (Homo sapiens (Human), UniProt P46663). The assay can be described thus: Calcium Mobilization Assay. The class given is cell-based. The conditions noted are these: GeneBLAzer Bradykinin (B1)-NFAT-bla CHO-K1 cells; antagonist activity, FLIPR; read-out: Ca mobilization IC50. Here is the method:
Calcium Mobilization Assay
GeneBLAzer® Bradykinin (B1)-NFAT-bla CHO-K1 cells (from Invitrogen) stably overexpressing the human bradykinin 1 receptor were cultured in DMEM (high glucose) supplemented with 10% dialysed FBS, 1% NEAA (non essential amino acids) 1% penicillin/streptomycin, 1% G418 and 0.1 mg/ml zeocin.
For the assay cells were grown overnight in 384-well black clear flat bottom polystyrene plates (Costar) at 37° C. at 5% CO2. After washing with DMEM, 20 mM Hepes, 2.5 mM probenecid, 0.1% BSA (DMEM assay buffer) cells were loaded with 4 μM Fluo-4 in the same DMEM assay buffer for 2 hours at 30° C. Excess dye was removed and cells were washed with DMEM assay buffer. 384-well compound plates were prepared with DMEM assay buffer/0.5% DMSO with or without various concentrations of test compounds. Usually compounds were tested for agonist and antagonist activity.
Test compounds were added to the assay plate and agonist activity was monitored as fluorescence for 80 seconds with a FLIPR (488 nm excitation; 510-570 nm emission; Molecular Devices). […] Increases in intracellular calcium are reported as maximum fluorescence after agonist exposure minus basal fluorescence before exposure. Antagonist activity is indicated as inhibitor concentration required for 50% inhibition of specific calcium increases.

Assay [2] deals with T1, Bradykinin-1 receptor. The assay can be described thus: Receptor Binding Assay. The conditions noted are these: membranes from CHO-K1 cells overexpressing Bradykinin-1 receptor; 6 nM [3H]Kallidin (Des Arg10, Leu9); read-out: B1R Binding Ki. Here is the method:
Binding assays were done with membranes from CHO-K1 cells overexpressing Bradykinin-1 receptor.
For binding, Bradykinin-1 receptor antagonist compounds were added in various concentrations in 50 mM Tris pH 7.4, 5 mM MgCl2 together with 6 nM Kallidin (Des Arg^10, Leu^9), [3,4-Prolyl-3,4-^3H(N)] (PerkinElmer, 1.85-4.44 TBq/mmol) to 40 μg membrane protein containing approximately 1 fmol Bradykinin-1 receptor and incubated for 15 min at 27° C. To determine non-specific binding 10 μM Lys-(Des-Arg^9)-Bradykinin (Bachem) was added. Membranes were harvested through GF/B (glass fiber filter; PerkinElmer) plates, equilibrated with 0.5% polyethylenimine, air dried at 50° C. for 2 hr. Radioactivity was determined by counting in a topcounter (NXT Packard). Specific binding was defined as total binding minus nonspecific binding and typically represents about 90-95% of the total binding. Antagonist activity is expressed as Ki: inhibitor concentration required for 50% inhibition of specific binding corrected for the concentration of the radioligand.

T1 sequence (P46663 whole entry): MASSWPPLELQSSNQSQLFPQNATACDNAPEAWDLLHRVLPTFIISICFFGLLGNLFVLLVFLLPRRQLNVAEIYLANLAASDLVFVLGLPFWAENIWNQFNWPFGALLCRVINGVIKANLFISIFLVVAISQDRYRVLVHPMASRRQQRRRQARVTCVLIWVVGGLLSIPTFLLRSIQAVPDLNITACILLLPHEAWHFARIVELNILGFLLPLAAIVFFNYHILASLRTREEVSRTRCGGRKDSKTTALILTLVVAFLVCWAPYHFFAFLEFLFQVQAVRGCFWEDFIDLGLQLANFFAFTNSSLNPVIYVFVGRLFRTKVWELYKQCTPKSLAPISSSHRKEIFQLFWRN

On to `COc1cc(C(=O)NC2(C(=O)N[C@H](C)c3ncc(-c4cc(Cl)cc(Cl)c4OCC(F)F)cc3F)COC2)on1` [Example 18, 3-Methoxy-isoxazole-5-carboxylic acid [3-((R)-1-{5-[3,5-dichloro-2-(2,2-difluoro-ethoxy)-phenyl]-3-fluoro-pyridin-2-yl}-ethylcarbamoyl)-oxetan-3-yl]-amide], for which, at Bradykinin-1 receptor [1], the IC50 came to 1.1 nM. Besides, the Ki at Bradykinin-1 receptor [2] is 3 nM.

As for `COCC(=O)NC1(C(=O)N[C@H](C)c2ncc(-c3cc(Cl)cc(Cl)c3OCC(F)F)cc2F)COC1` [Example 42, 3-(2-Methoxy-acetylamino)-oxetane-3-carboxylic acid ((R)-1-{5-[3,5-dichloro-2-(2,2-difluoro-ethoxy)-phenyl]-3-fluoro-pyridin-2-yl}-ethyl)-amide], on Bradykinin-1 receptor [1], the IC50 came to 201 nM. In addition, the Ki at Bradykinin-1 receptor [2] is 119 nM.

In the case of `COc1cc(C(=O)NC2(C(=O)N[C@H](C)c3ncc(-c4cc(Cl)cc(F)c4-c4noc(C)n4)cc3F)COC2)on1` [Example 14, 3-Methoxy-isoxazole-5-carboxylic acid [3-((R)-1-{5-[5-chloro-3-fluoro-2-(5-methyl-[1,2,4]oxadiazol-3-yl)-phenyl]-3-fluoro-pyridin-2-yl}-ethylcarbamoyl)-oxetan-3-yl]-amide], at Bradykinin-1 receptor [1], the IC50 stood at 0.2 nM. In addition, the Ki at Bradykinin-1 receptor [2] was determined as 1.4 nM.

Consider `COc1ncc(C(=O)NC2(C(=O)N[C@H](C)c3ccc(-c4cc(Cl)cc(Cl)c4OCC(F)F)cc3F)COC2)cn1` [Example 35, 2-Methoxy-pyrimidine-5-carboxylic acid (3-{(R)-1-[3′,5′-dichloro-2′-(2,2-difluoro-ethoxy)-3-fluoro-biphenyl-4-yl]-ethylcarbamoyl}-oxetan-3-yl)-amide], for which the IC50 at Bradykinin-1 receptor [1] stood at 0.3 nM. In addition, the Ki at Bradykinin-1 receptor [2] is 3.3 nM.

With `Cc1cc(C(=O)NC2(C(=O)N[C@H](C)c3ccc(-c4cc(Cl)cc(F)c4-c4noc(C)n4)cc3F)COC2)on1` [Example 24, 3-Methyl-isoxazole-5-carboxylic acid (3-{(R)-1-[5′-chloro-3,3′-difluoro-2′-(5-methyl-[1,2,4]oxadiazol-3-yl)-biphenyl-4-yl]-ethylcarbamoyl}-oxetan-3-yl)-amide], on Bradykinin-1 receptor [1], the IC50 turned out to be 0.1 nM. The Ki on Bradykinin-1 receptor [2] turned out to be 1.2 nM.

Consider `COc1ncc(C(=O)NC2(C(=O)N[C@H](C)c3ncc(-c4cc(Cl)cc(Cl)c4OCC(F)F)cc3F)COC2)cn1` [Example 40, 2-Methoxy-pyrimidine-5-carboxylic acid [3-((R)-1-{5-[3,5-dichloro-2-(2,2-difluoro-ethoxy)-phenyl]-3-fluoro-pyridin-2-yl}-ethylcarbamoyl)-oxetan-3-yl]-amide], for which, at Bradykinin-1 receptor [1], the IC50 was found to be 0.1 nM. The Ki at Bradykinin-1 receptor [2] worked out at 1.1 nM.

On to `Cc1nc(-c2c(F)cc(Cl)cc2-c2cnc([C@@H](C)NC(=O)C3(NC(=O)c4ccnnc4)COC3)c(F)c2)no1` [Example 25, Pyridazine-4-carboxylic acid [3-((R)-1-{5-[5-chloro-3-fluoro-2-(5-methyl-[1,2,4]oxadiazol-3-yl)-phenyl]-3-fluoro-pyridin-2-yl}-ethylcarbamoyl)-oxetan-3-yl]-amide], for which the IC50 at Bradykinin-1 receptor [1] was determined as 0.4 nM. The Ki at Bradykinin-1 receptor [2] worked out at 1 nM.

As for `C[C@@H](NC(=O)C1(NC(=O)C(F)(F)F)COC1)c1ccc(-c2cc(Cl)cc(Cl)c2OCC(F)F)cc1F` [Example 33, 3-(2,2,2-Trifluoro-acetylamino)-oxetane-3-carboxylic acid {(R)-1-[3′,5′-dichloro-2′-(2,2-difluoro-ethoxy)-3-fluoro-biphenyl-4-yl]-ethyl}-amide], at Bradykinin-1 receptor [1], the IC50 was 5.3 nM. Moreover, the Ki on Bradykinin-1 receptor [2] was determined as 19.9 nM.

As for `Cc1cc(C(=O)NC2(C(=O)N[C@H](C)c3ncc(-c4cc(Cl)cc(Cl)c4OCC(F)F)cc3F)COC2)on1` [Example 9, 3-Methyl-isoxazole-5-carboxylic acid [3-((R)-1-{5-[3,5-dichloro-2-(2,2-difluoro-ethoxy)-phenyl]-3-fluoro-pyridin-2-yl}-ethylcarbamoyl)-oxetan-3-yl]-amide], the IC50 at Bradykinin-1 receptor [1] turned out to be 1.1 nM. Moreover, the Ki on Bradykinin-1 receptor [2] turned out to be 5.1 nM.

For the compound `COC(=O)c1c(Cl)cccc1-c1ccc([C@@H](C)NC(=O)C2(NC(=O)c3cc(C)no3)COC2)c(F)c1` [Example 13, 3-Chloro-3′-fluoro-4′-[(R)-1-({3-[(3-methyl-isoxazole-5-carbonyl)-amino]-oxetane-3-carbonyl}-amino)-ethyl]-biphenyl-2-carboxylic acid methyl ester], the IC50 on Bradykinin-1 receptor [1] came to 0.04 nM. Further, on Bradykinin-1 receptor [2], the Ki worked out at 1 nM.

As for `Cc1nc(-c2c(F)cc(Cl)cc2-c2cnc([C@@H](C)NC(=O)C3(NC(=O)C(F)(F)F)COC3)c(F)c2)no1` [Example 2, 3-(2,2,2-Trifluoro-acetylamino)-oxetane-3-carboxylic acid ((R)-1-{5-[5-chloro-3-fluoro-2-(5-methyl-[1,2,4]oxadiazol-3-yl)-phenyl]-3-fluoro-pyridin-2-yl}-ethyl)-amide], at Bradykinin-1 receptor [1], the IC50 came out at 1.2 nM. Moreover, on Bradykinin-1 receptor [2], the Ki was 11.9 nM.

With `COc1ncc(C(=O)NC2(C(=O)N[C@H](C)c3ccc(-c4cc(Cl)cc(F)c4-c4nnn(C)n4)cc3F)COC2)cn1` [Example 44, 2-Methoxy-pyrimidine-5-carboxylic acid (3-{(R)-1-[5′-chloro-3,3′-difluoro-2′-(2-methyl-2H-tetrazol-5-yl)-biphenyl-4-yl]-ethylcarbamoyl}-oxetan-3-yl)-amide], the IC50 at Bradykinin-1 receptor [1] was 0.1 nM. The Ki at Bradykinin-1 receptor [2] came out at 1.1 nM.

In the case of `Cc1nc(-c2c(F)cc(Cl)cc2-c2cnc([C@@H](C)NC(=O)C3(NC(=O)c4cccnn4)COC3)c(F)c2)no1` [Example 29, Pyridazine-3-carboxylic acid [3-((R)-1-{5-[5-chloro-3-fluoro-2-(5-methyl-[1,2,4]oxadiazol-3-yl)-phenyl]-3-fluoro-pyridin-2-yl}-ethylcarbamoyl)-oxetan-3-yl]-amide], the IC50 on Bradykinin-1 receptor [1] turned out to be 9.4 nM. The Ki on Bradykinin-1 receptor [2] was found to be 14.1 nM.

Turning to `COC(=O)c1c(Cl)cccc1-c1ccc([C@@H](C)NC(=O)C2(NC(=O)c3ccno3)COC2)c(F)c1` [Example 12, 3-Chloro-3′-fluoro-4′-[(R)-1-({3-[(isoxazole-5-carbonyl)-amino]-oxetane-3-carbonyl}-amino)-ethyl]-biphenyl-2-carboxylic acid methyl ester], at Bradykinin-1 receptor [1], the half-maximal inhibitory concentration (IC50) was 0.1 nM. Besides, the Ki at Bradykinin-1 receptor [2] came to 0.8 nM.

With `Cc1nnc(C(=O)NC2(C(=O)N[C@H](C)c3ccc(-c4cc(Cl)cc(Cl)c4OCC(F)F)cc3F)COC2)o1` [Example 38, 5-Methyl-[1,3,4]oxadiazole-2-carboxylic acid (3-{(R)-1-[3′,5′-dichloro-2′-(2,2-difluoro-ethoxy)-3-fluoro-biphenyl-4-yl]-ethylcarbamoyl}-oxetan-3-yl)-amide], the IC50 at Bradykinin-1 receptor [1] worked out at 0.6 nM. Moreover, on Bradykinin-1 receptor [2], the Ki was 4.3 nM.

As to `COc1cc(C(=O)NC2(C(=O)N[C@H](C)c3ncc(-c4cc(Cl)cc(F)c4-c4nnn(C)n4)cc3F)COC2)on1` [Example 34, 3-Methoxy-isoxazole-5-carboxylic acid [3-((R)-1-{5-[5-chloro-3-fluoro-2-(2-methyl-2H-tetrazol-5-yl)-phenyl]-3-fluoro-pyridin-2-yl}-ethylcarbamoyl)-oxetan-3-yl]-amide], the IC50 on Bradykinin-1 receptor [1] was 0.4 nM. In addition, on Bradykinin-1 receptor [2], the Ki amounted to 2.2 nM.

In the case of `Cc1nc(-c2c(F)cc(Cl)cc2-c2cnc([C@@H](C)NC(=O)C3(NC(=O)c4cncnc4)COC3)c(F)c2)no1` [Example 5, Pyrimidine-5-carboxylic acid [3-((R)-1-{5-[5-chloro-3-fluoro-2-(5-methyl-[1,2,4]oxadiazol-3-yl)-phenyl]-3-fluoro-pyridin-2-yl}-ethylcarbamoyl)-oxetan-3-yl]-amide], the IC50 on Bradykinin-1 receptor [1] was 0.1 nM. In addition, the Ki on Bradykinin-1 receptor [2] is 1.1 nM.

Take `Cc1nnc(C(=O)NC2(C(=O)N[C@H](C)c3ncc(-c4cc(Cl)cc(Cl)c4OCC(F)F)cc3F)COC2)o1` [Example 39, 5-Methyl-[1,3,4]oxadiazole-2-carboxylic acid [3-((R)-1-{5-[3,5-dichloro-2-(2,2-difluoro-ethoxy)-phenyl]-3-fluoro-pyridin-2-yl}-ethylcarbamoyl)-oxetan-3-yl]-amide]: on Bradykinin-1 receptor [1], the IC50 worked out at 3.9 nM. Besides, the Ki at Bradykinin-1 receptor [2] came out at 8.7 nM.

Take `C[C@@H](NC(=O)C1(NC(=O)c2ccno2)COC1)c1ccc(-c2cc(Cl)cc(Cl)c2OCC(F)F)cc1F` [Example 32, Isoxazole-5-carboxylic acid (3-{(R)-1-[3′,5′-dichloro-2′-(2,2-difluoro-ethoxy)-3-fluoro-biphenyl-4-yl]-ethylcarbamoyl}-oxetan-3-yl)-amide]: at Bradykinin-1 receptor [1], the IC50 was 0.2 nM. The Ki at Bradykinin-1 receptor [2] came to 2.3 nM.
